# Where two headings read alike, the source gives them in different places.
# What was measured:
# EGFR (L858R T790M C797S) = biological target: T1, EGFR (L858R T790M C797S) (Homo sapiens, UniProt P00533, C797S/L858R/T790M); test: Biochemical EGFR inhibition assay (Caliper mobility shift), EGFR LRTMCS mutant; conditions: inhibitory activity against EGFR LRTMCS mutant; apparent IC50; read-out: Ext Enz LRTMCS
# T1 construct: purchased SignalChem E10-122VG
# How it was run: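 Kinase reactions at 25 °C run to 10–20% peptide phosphorylation, stopped with 35 mM EDTA. Phosphorylated product and substrate separated electrophoretically by mobility shift. Apparent IC50 from percent activity versus log compound concentration.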
# [1] = test system: phosphorylation of EGFR (Tyr1068) in NCI-H1975 cell line that harbors the EGFR L858R T790M mutations; test: NCI-H1975 pEGFR AlphaLISA assay; type: cell-based; conditions: 4-5 hours incubation, read-out: Ext pEGFR H1975
# How it was run: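 NCI-H1975 cells (EGFR L858R/T790M) seeded overnight, then treated with compound for 4-5 h at 37 °C/5% CO2. After lysis, p-EGFR (Tyr1068) quantified by AlphaLISA SureFire Ultra with acceptor then donor beads; IC50 fitted from percent inhibition versus log concentration.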
# [2] = Homo sapiens, NCI-H1975, inhibition of phosphorylation of mutant EGFR in NCI-H1975 cells
# T1 sequence (P00533 25-1210 T790M/C797S/L858R): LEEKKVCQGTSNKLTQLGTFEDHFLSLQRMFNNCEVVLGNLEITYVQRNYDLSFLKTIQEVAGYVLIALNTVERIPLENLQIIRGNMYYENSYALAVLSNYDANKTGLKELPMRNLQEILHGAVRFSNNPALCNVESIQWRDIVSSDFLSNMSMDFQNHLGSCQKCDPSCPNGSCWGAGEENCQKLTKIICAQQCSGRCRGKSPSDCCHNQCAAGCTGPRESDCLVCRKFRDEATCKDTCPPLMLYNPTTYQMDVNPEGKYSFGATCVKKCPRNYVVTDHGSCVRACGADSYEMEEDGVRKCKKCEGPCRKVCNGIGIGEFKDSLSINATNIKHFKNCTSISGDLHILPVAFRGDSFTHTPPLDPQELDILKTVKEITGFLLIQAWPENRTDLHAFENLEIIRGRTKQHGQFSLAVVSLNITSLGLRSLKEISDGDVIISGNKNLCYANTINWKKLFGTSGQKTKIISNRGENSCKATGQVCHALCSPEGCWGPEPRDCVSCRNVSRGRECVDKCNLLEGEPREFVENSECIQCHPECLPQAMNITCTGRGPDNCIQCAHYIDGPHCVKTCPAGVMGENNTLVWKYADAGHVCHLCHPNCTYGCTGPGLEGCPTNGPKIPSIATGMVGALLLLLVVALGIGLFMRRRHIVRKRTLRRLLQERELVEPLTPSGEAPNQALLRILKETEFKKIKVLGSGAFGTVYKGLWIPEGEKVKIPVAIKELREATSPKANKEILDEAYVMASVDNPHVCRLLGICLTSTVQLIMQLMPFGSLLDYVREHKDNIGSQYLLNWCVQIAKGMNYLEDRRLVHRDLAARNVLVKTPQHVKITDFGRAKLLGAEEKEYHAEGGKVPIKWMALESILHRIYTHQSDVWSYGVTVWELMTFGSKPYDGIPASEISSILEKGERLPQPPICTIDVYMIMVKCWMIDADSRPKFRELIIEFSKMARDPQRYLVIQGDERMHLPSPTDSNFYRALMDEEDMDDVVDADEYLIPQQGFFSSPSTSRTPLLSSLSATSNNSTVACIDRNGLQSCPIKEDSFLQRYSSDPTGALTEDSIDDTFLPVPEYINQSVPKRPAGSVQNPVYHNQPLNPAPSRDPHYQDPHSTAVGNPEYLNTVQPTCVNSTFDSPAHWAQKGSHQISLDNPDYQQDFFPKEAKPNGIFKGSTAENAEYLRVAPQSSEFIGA
IC50 (EGFR (L858R T790M C797S)),"IC50 [1, 2]",IC50 ([1]; inhibition of phosphorylation of mutant EGFR in NCI-H1975 cells),SMILES
≤ 15 nM,≤ 10 nM,,"CC(C)c1ccc(N2CC(CS(C)(=O)=O)C2)c2cnc(Nc3ccnc(N4C[C@@H](F)[C@@H](O)[C@](C)(F)C4)n3)cc12 (single isomer, unassigned) [Compound 156, (3R,4R,5R)-3,5-difluoro-1-[4-({8-[3-(methanesulfonylmethyl)azetidin-1-yl]-5-(propan-2-yl)isoquinolin-3-yl}amino)pyrimidin-2-yl]-3-methylpiperidin-4-ol or (3S,4S,5S)-3,5-difluoro-1-[4-({8-[3-(methanesulfonylmethyl)azetidin-1-yl]-5-(propan-2-yl)isoquinolin-3-yl}amino)pyrimidin-2-yl]-3-methylpiperidin-4-ol]"
≤ 15 nM,≤ 10 nM,,"CO[C@@H]1CCN(c2nccc(Nc3cc4c(C(C)C)cnc(N5C[C@H](CS(C)(=O)=O)[C@H]5C)c4cn3)n2)C[C@@H]1O (single isomer, unassigned) [Compound 105, (3S,4R)-1-[4-({8-[(2R,3S)-3-(methanesulfonylmethyl)-2-methylazetidin-1-yl]-5-(propan-2-yl)-2,7-naphthyridin-3-yl}amino)pyrimidin-2-yl]-4-methoxypiperidin-3-ol or (3R,4S)-1-[4-({8-[(2R,3S)-3-(methanesulfonylmethyl)-2-methylazetidin-1-yl]-5-(propan-2-yl)-2,7-naphthyridin-3-yl}amino)pyrimidin-2-yl]-4-methoxypiperidin-3-ol]"
15.1 to 20 nM,,30.1 to 50 nM,"CC(C)c1ccc(N2CC(CS(C)(=O)=O)C2)c2cnc(Nc3ccnc(N4CC[C@H](O)[C@H](C)C4)n3)cc12 (single isomer, unassigned) [Compound 20, (3R,4S)-1-[4-({8-[3-(methanesulfonylmethyl)azetidin-1-yl]-5-(propan-2-yl)isoquinolin-3-yl}amino)pyrimidin-2-yl]-3-methylpiperidin-4-ol or (3S,4R)-1-[4-({8-[3-(methanesulfonylmethyl)azetidin-1-yl]-5-(propan-2-yl)isoquinolin-3-yl}amino)pyrimidin-2-yl]-3-methylpiperidin-4-ol]"
≤ 15 nM,≤ 10 nM,,"CC(C)c1ccc(N2CC(CS(C)(=O)=O)C2)c2cnc(Nc3ccnc(N4CC[C@@H](F)[C@@H](O)C4)n3)cc12 (single isomer, unassigned) [Compound 26, (3R,4S)-4-fluoro-1-[4-({8-[3-(methanesulfonylmethyl)azetidin-1-yl]-5-(propan-2-yl)isoquinolin-3-yl}amino)pyrimidin-2-yl]piperidin-3-ol or (3S,4R)-4-fluoro-1-[4-({8-[3-(methanesulfonylmethyl)azetidin-1-yl]-5-(propan-2-yl)isoquinolin-3-yl}amino)pyrimidin-2-yl]piperidin-3-ol]"
≤ 15 nM,≤ 10 nM,,"CC(C)c1cnc(N2C[C@H](CS(C)(=O)=O)[C@H]2C)c2cnc(Nc3ccnc(N4CC[C@H]5COC[C@H]54)n3)cc12 (single isomer, unassigned) [Compound 266, N-{2-[(3aR,6aS)-hexahydro-1H-furo[3,4-b]pyrrol-1-yl]pyrimidin-4-yl}-8-[(2R,3S)-3-(methanesulfonylmethyl)-2-methylazetidin-1-yl]-5-(propan-2-yl)-2,7-naphthyridin-3-amine or N-{2-[(3aS,6aR)-hexahydro-1H-furo[3,4-b]pyrrol-1-yl]pyrimidin-4-yl}-8-[(2R,3S)-3-(methanesulfonylmethyl)-2-methylazetidin-1-yl]-5-(propan-2-yl)-2,7-naphthyridin-3-amine]"
≤ 15 nM,≤ 10 nM,,"CO[C@@H]1CCN(c2nncc(Nc3cc4c(C(C)C)ccc(N5C[C@H](CS(C)(=O)=O)[C@H]5C)c4cn3)n2)C[C@@H]1F [Compound 134, N-(3-((3S,4R)-3-fluoro-4-methoxypiperidin-1-yl)-1,2,4-triazin-5-yl)-5-isopropyl-8-((2R,3S)-2-methyl-3-(methylsulfonylmethyl)azetidin-1-yl)isoquinolin-3-amine]"
≤ 15 nM,≤ 10 nM,,"COCCO[C@H]1CCN(c2nccc(Nc3cc4c(C(C)C)ccc(N5C[C@H](CS(C)(=O)=O)[C@H]5C)c4cn3)n2)C[C@H]1F (single isomer, unassigned) [Compound 246]"
≤ 15 nM,≤ 10 nM,,"[2H]C([2H])([2H])O[C@@H]1CCN(c2nccc(Nc3cc4c(C(C)C)ccc(N5CC(CS(C)(=O)=O)C5)c4cn3)n2)C[C@@H]1F (single isomer, unassigned) [Compound 82]"
≤ 15 nM,10.1 to 20 nM,,"CCS(=O)(=O)CC1CN(c2cccc3cc(Nc4ccnc(N5C[C@H](F)[C@H](O)C(C)(C)C5)n4)ncc23)C1 (single isomer, unassigned) [Compound 27, (4S,5R)-1-{4-[(8-{3-[(ethanesulfonyl)methyl]azetidin-1-yl}isoquinolin-3-yl)amino]pyrimidin-2-yl}-5-fluoro-3,3-dimethylpiperidin-4-ol or (4R,5S)-1-{4-[(8-{3-[(ethanesulfonyl)methyl]azetidin-1-yl}isoquinolin-3-yl)amino]pyrimidin-2-yl}-5-fluoro-3,3-dimethylpiperidin-4-ol]"
≤ 15 nM,≤ 10 nM,,"CCS(=O)(=O)CC1CN(c2ccc(C(C)C)c3cc(Nc4cnnc(N5CC[C@H](OC)[C@H](F)C5)n4)ncc23)C1 [Compound 281, 8-{3-[(ethanesulfonyl)methyl]azetidin-1-yl}-N-{3-[(3R,4S)-3-fluoro-4-methoxypiperidin-1-yl]-1,2,4-triazin-5-yl}-5-(propan-2-yl)isoquinolin-3-amine]"
≤ 15 nM,30.1 to 50 nM,,"CC(C)c1ccc(N2CC(CS(C)(=O)=O)C2)c2cnc(Nc3ccnc(N4C[C@H]5C[C@@H]4C[C@H]5O)n3)cc12 (single isomer, unassigned) [Compound 11, (1R,4R,5R)-2-[4-({8-[3-(methanesulfonylmethyl)azetidin-1-yl]-5-(propan-2-yl)isoquinolin-3-yl}amino)pyrimidin-2-yl]-2-azabicyclo[2.2.1]heptan-5-ol or (1S,4S,5S)-2-[4-({8-[3-(methanesulfonylmethyl)azetidin-1-yl]-5-(propan-2-yl)isoquinolin-3-yl}amino)pyrimidin-2-yl]-2-azabicyclo[2.2.1]heptan-5-ol]"
≤ 15 nM,≤ 10 nM,,"CO[C@H]1CN(c2nccc(Nc3cc4c(C(C)C)ccc(N5C[C@H](CS(C)(=O)=O)[C@H]5C)c4cn3)n2)CC[C@H]1O (single isomer, unassigned) [Compound 97, (3S,4R)-1-[4-({8-[(2R,3S)-3-(methanesulfonylmethyl)-2-methylazetidin-1-yl]-5-(propan-2-yl)isoquinolin-3-yl}amino)pyrimidin-2-yl]-3-methoxypiperidin-4-ol or (3R,4S)-1-[4-({8-[(2R,3S)-3-(methanesulfonylmethyl)-2-methylazetidin-1-yl]-5-(propan-2-yl)isoquinolin-3-yl}amino)pyrimidin-2-yl]-3-methoxypiperidin-4-ol]"
15.1 to 20 nM,30.1 to 50 nM,,"CCS(=O)(=O)CC1CN(c2ccc(OC)c3cc(Nc4ccnc(N5CC[C@@H](O)[C@@](C)(F)C5)n4)ncc23)C1 (single isomer, unassigned) [Compound 77]"
≤ 15 nM,≤ 10 nM,,"CC(C)c1ccc(N2C[C@@H](CS(C)(=O)=O)[C@@H]2C)c2cnc(Nc3ccnc(N4CC[C@@H]5C[C@H]4CO5)n3)cc12 (single isomer, unassigned) [Compound 41, N-(2-((1S,5R)-6-oxa-2-azabicyclo[3.2.1]octan-2-yl)pyrimidin-4-yl)-5-isopropyl-8-((2S,3R)-2-methyl-3-((methylsulfonyl)methyl)azetidin-1-yl)isoquinolin-3-amine or N-(2-((1R,5S)-6-oxa-2-azabicyclo[3.2.1]octan-2-yl)pyrimidin-4-yl)-5-isopropyl-8-((2S,3R)-2-methyl-3-((methylsulfonyl)methyl)azetidin-1-yl)isoquinolin-3-amine]"
≤ 15 nM,≤ 10 nM,,"CC(C)c1ccc(N2CC(CS(C)(=O)=O)C2)c2cnc(Nc3ccnc(N4CCC5(CCO5)CC4)n3)cc12 [Compound 38, 8-[3-(methanesulfonylmethyl)azetidin-1-yl]-N-(2-{1-oxa-7-azaspiro[3.5]nonan-7-yl}pyrimidin-4-yl)-5-(propan-2-yl)isoquinolin-3-amine]"
≤ 15 nM,≤ 10 nM,,"CO[C@@H]1CCN(c2nccc(Nc3cc4c(C(C)C)ncc(N5CC(CS(C)(=O)=O)C5)c4cn3)n2)C[C@]1(C)F [Compound 144, N-{2-[(3S,4R)-3-fluoro-4-methoxy-3-methylpiperidin-1-yl]pyrimidin-4-yl}-8-[3-(methanesulfonylmethyl)azetidin-1-yl]-5-(propan-2-yl)-2,6-naphthyridin-3-amine]"
≤ 15 nM,20.1 to 30 nM,,"CC1(C)CN(c2nccc(Nc3cc4ccnc(N5CC(CS(C)(=O)=O)C5)c4cn3)n2)C[C@@H](F)[C@H]1O (single isomer, unassigned) [Compound 6, (4S,5R)-5-fluoro-1-[4-({8-[3-(methanesulfonylmethyl)azetidin-1-yl]-2,7-naphthyridin-3-yl}amino)pyrimidin-2-yl]-3,3-dimethylpiperidin-4-ol or (4R,5S)-5-fluoro-1-[4-({8-[3-(methanesulfonylmethyl)azetidin-1-yl]-2,7-naphthyridin-3-yl}amino)pyrimidin-2-yl]-3,3-dimethylpiperidin-4-ol]"

# From patent publication US12172983B2, “EGFR inhibitors” (Blueprint Medicines Corporation, priority 2019, dated 2024)
